Test results from patent publication US20110207801A1, “Novel Genes, Compositions, and Methods for Modulating the Unfolded Protein Response” (University of Michigan, priority 2002, published 2011).

Assays:
[1] = test system: hsp-3; experiment: hsp-3 expression upon ER stress (Northern blot, quantitative Taqman RT-PCR); type: in vivo, C. elegans; conditions: wild-type 1.5 day-old L2 larvae, 4 hours
Experimental: (§1) For Northern analysis, mixed-stage nematodes grown in liquid culture were treated with 3 mM of DTT (Calbiochem) for up to 8 hours. Heat-shock treatment was performed at 30° C. for 1 hour. For single worm analysis, individual L2 larvae grown on plates were treated with 2.5 mM of DTT or 28 μg/ml of tunicamycin (Calbiochem) for 4 hours. To study survival to tunicamycin, gravid adults were allowed to lay eggs on plates containing tunicamycin (0 to 7.5 μg/ml) for 4 hours and then removed from the plates. Eggs were counted and studied 3 days later.
Total RNA preparation and Northern blot analysis was performed as described (Chen et al., 2000). The blot was hybridized sequentially with digoxigenin (DIG)-labeled DNA probes for hsp-3 and for 26S rRNA prepared with DIG-high prime labeling Kit (Roche).
Taqman RT-PCR was performed as described by Heid et al. (1996). The lack of DNA contamination in RNA preparations was confirmed by a 1000-fold decrease in quantitative PCR yield when reverse transcriptase was omitted. A unique sequence in the 3′UTR of act-1 and act-3 was amplified using Taqman PCR (primers act-F/act-R and act-probe). The primers (hsp-3-F/hsp-3-R) and the hsp-3-probe probe were used for detecting hsp-3 transcripts. The primers (hsp-4-F and hsp-4-R) and the hsp-4-probe probe were used for detecting hsp-4 transcripts. […]

[2] = test system: hsp-4; experiment: hsp-4 expression upon ER stress (quantitative Taqman RT-PCR); type: in vivo, C. elegans; conditions: wild-type 1.5 day-old L2 larvae, 4 hours
Experimental: as §1
Taqman RT-PCR was performed as described by Heid et al. (1996). The lack of DNA contamination in RNA preparations was confirmed by a 1000-fold decrease in quantitative PCR yield when reverse transcriptase was omitted. A unique sequence in the 3′UTR of act-1 and act-3 was amplified using Taqman PCR (primers act-F/act-R and act-probe). The primers (hsp-3-F/hsp-3-R) and the hsp-3-probe probe were used for detecting hsp-3 transcripts. The primers (hsp-4-F and hsp-4-R) and the hsp-4-probe probe were used for detecting hsp-4 transcripts. The relative expression of hsp-3 and hsp-4 was normalized to the average signals of act-1/act-3.

[3] = test system: GRP94 mRNA; experiment: Northern blot analysis of GRP94 mRNA in MEFs; type: cell-based, mouse; conditions: 10 μg/ml, 6 hr
Experimental: (§2) FIGS. 12E and 12F depict a Northern blot analysis of wild-type and IRE1α-null MEFs. One blot was probed with [α-^32P]-labeled hamster BiP cDNA and β-actin cDNA (E) and another blot was probed with [α-^32P]-labeled mouse GRP94 DNA and β-actin cDNA (F).
(§3) Southern and Northern blot analysis followed standard procedures (Sambrook et al., 1989). [^32P]-labeled probes were prepared using a random prime labeling system (Amersham Pharmacia, Piscataway, N.J.). A 0.5-kb BamHI-XhoI fragment from the BS-mIRE1α targeting vector or a 3.6-kb EcoRI-XbaI fragment from pED-hIRE1α cDNA (Tirasophon et al., 2000) were used for Southern and Northern analysis, respectively. The probes for Northern analysis of mXbp1, BiP and GRP94 were a 0.94-kb XhoI fragment of pcDNA-mXbp1-u, the EcoRI-PstI fragment of hamster BiP (Ting et al., 1987), and a 146-bp PCR fragment of mouse GRP94 (from 142 to 287 of the coding region), respectively.

[4] = test system: Xbp1 mRNA; experiment: Northern blot analysis of Xbp1 mRNA in MEFs; type: cell-based, mouse; conditions: 10 μg/ml, 6 hr
Experimental: FIG. 15F depicts a Northern blot analysis of Xbp1 mRNA in IRE1α-null MEFs. Wild-type and IRE1α-null MEFs were treated with or without 10 μg/ml tunicamycin for 6 hr prior to harvesting total RNA for Northern blot analysis. The blots were probed with [α-^32P]-labeled 0.94-kb XhoI fragment of XBP1-u and [β-actin cDNA.
as §3

[5] = test system: C. elegans; experiment: survival to tunicamycin (eggs laid on plates, studied after 3 days); type: in vivo; conditions: for animals arrested at or prior to the L3 stage / animals matured to the L4 stage or older / dead animals: after 3 days
From the text: Eggs from each strain were laid on plates containing different concentrations of tunicamycin, counted, and studied after 3 days. The number of eggs studied is listed above each column. The X-axis represents tunicamycin concentration. The total worm population was grouped into three fractions: animals that matured to L4 or older, animals that arrested at or prior to the L3 stage, and dead animals. Each fraction was plotted as the percentage of total eggs laid (Y-axis).
as §1

[6] = test system: BiP mRNA; experiment: Northern blot analysis of BiP mRNA in MEFs; type: cell-based, mouse; conditions: tunicamycin for 6 hr
Experimental: as §2, §3

[7] = test system: Xbp1 mRNA; experiment: Northern blot analysis of Xbp1 mRNA in CHO cells; type: cell-based, Chinese hamster; conditions: 2 μg/ml, 16 hours
Experimental: (§4) FIG. 17E depicts a Northern blot analysis of BiP and Xbp1 mRNA in S2P-deficient cells. Wild-type and S2P-deficient CHO cells were treated with or without 2 μg/ml tunicamycin for 16 hours prior to harvesting total RNA for Northern blot analysis using hamster BiP, XBP1-u and β-actin cDNA as probes.
as §3

[8] = test system: IRE1; experiment: XBP1-EGFP reporter of IRE1 activation in murine embryonic fibroblast cells; type: cell-based
From the text: (§5) COS-1 monkey cells were transfected by either diethylaminoethyl (DEAE)-dextran (Kaufman, 1997) or Calcium Phosphate-BES methods (Ausubel et al, 1999). Chinese hamster ovary (CHO) cells were transfected by either lipofectAMINE PLUS (Life Technology) or FuGENE6 (Roche). Murine embryonic fibroblasts (MEFs) were transfected by either FuGENE6 (Roche) or Effectine (QIAGEN). IRE1 activation was monitored by immunoprecipitation and western analysis.
(§6) XBP1 splicing was also monitored by RT-PCR analysis of RNAs using primers designed to amplify the region encompassing the overlap between open reading frame 1 (ORF1) and ORF2 within XBP1 mRNA (see Lee et al., Genes and Dev. 2002). XBP1 splicing may also be monitored by assessing the expression of a reporter gene that is regulated by splicing of the XBP1 intron. The coding region of EGFP, Luciferase or β-galactosidase was fused to the mouse XBP1 ORF1 downstream of the XBP1 intron. Transcription of the construct is under control of the constitutively expressed CMV promoter. Therefore, expression of the XBP1-EGFP, XBP1-Luciferase or XBP1-β-galactosidase fusion protein is regulated by splicing of the XBP1 intron.
(§7) At 48 hours after transfection, cells were treated with 10 ug/ml tunicamycin to inhibit N-linked glycosylation. […] Therefore, this construct is instrumental in monitoring IRE1 activation.

[9] = test system: BiP mRNA; experiment: Northern blot analysis of BiP mRNA in CHO cells; type: cell-based, Chinese hamster; conditions: 2 μg/ml, 16 hours
Experimental: as §4, §3

[10] = test system: IRE1; experiment: XBP1-EGFP reporter of IRE1 activation in COS-1 cells; type: cell-based, monkey; conditions: 10 ug/ml, after 8 and 16 hours
From the text: as §5, §6, §7

O[C@H](CS)[C@H](O)CS (racemic) [DTT, dithiothreitol]
hsp-3 induction ([1]; DTT 2.5 mM): ~9.3 fold | hsp-4 induction ([2]; DTT 2.5 mM): 61 fold

tunicamycin
GRP94 mRNA induction ([3]; IRE1α-null MEFs): 5.4 fold | GRP94 mRNA induction ([3]; wild-type MEFs): 6.7 fold | Xbp1 mRNA induction ([4]; IRE1α-null MEFs): 4.0 fold | Xbp1 mRNA induction ([4]; wild-type MEFs): 3.1 fold | animals arrested at or prior to the L3 stage ([5]; IRE1(v33) mutants, 2 μg/ml): 60% | animals matured to the L4 stage or older ([5]; IRE1(v33) mutants, 2 μg/ml): 9% | dead animals ([5]; IRE1(v33) mutants, 2 μg/ml): 31% | animals arrested at or prior to the L3 stage ([5]; N2, 5 μg/ml): 29% | animals matured to the L4 stage or older ([5]; N2, 5 μg/ml): 8% | dead animals ([5]; N2, 5 μg/ml): 63% | concentration at which growth of N2 animals was affected ([5]; N2, plates with 0 to 7.5 μg/ml): ≥ 5 µg/mL | animals arrested at or prior to the L3 stage ([5]; PEK1(ok275) mutants, 2 μg/ml): 31% | animals matured to the L4 stage or older ([5]; PEK1(ok275) mutants, 2 μg/ml): 35% | dead animals ([5]; PEK1(ok275) mutants, 2 μg/ml): 34% | reduction of BiP mRNA induction in IRE1α-null MEFs compared with wild-type [6]: 10% | Xbp1 mRNA induction ([7]; S2P-deficient CHO cells): 2.9 fold | Xbp1 mRNA induction ([7]; wild-type CHO cells): 3.1 fold | fluorescence of cells expressing the XBP1-EGFP construct ([8]; control murine embryonic fibroblast cells): intense fluorescsence | fluorescence of cells expressing the XBP1-EGFP construct ([8]; murine embryonic fibroblast cells deleted in both IRE1α alleles): no fluorescence was detected | hsp-3 induction ([1]; tunicamycin 28 μg/ml): ~3.9 fold | BiP mRNA induction ([9]; S2P-deficient CHO cells): 2.6 fold | BiP mRNA induction ([9]; wild-type CHO cells): 34 fold | fluorescence of cells transfected with the XBP1-EGFP construct [10]: bright fluoresence | hsp-4 induction ([2]; tunicamycin 28 μg/ml): 29 fold
